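Step 1: Grow cells in 96-well plates. Step 2: Expose to compound for 48 hours at 5 concentrations. Step 3: Interpolate endpoints linearly; if unreached, use highest concentration. At the TGI there is no net growth.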

The values below come from PubChem BioAssay (NCI).

Some test systems named below: SR leukemia; HCT-116 colon; A498 renal; TK-10 renal; 786-0 renal; MDA-MB-435; SNB-19 CNS; HL-60(TB) leukemia; SN12C renal.
What all share (assay): NCI tumour cell line growth inhibition, 48 h

Consider `COCC#C[C@@]1(O)CCCCC1CC(OC)OC` (stereo not given in full), for which the TGI in the assay on SR leukemia, in the assay on HCT-116 colon, in the assay with A498 renal, in the assay on TK-10 renal, with 786-0 renal and with MDA-MB-435 was above 100 µM in each case. Besides, the TGI in the assay with SNB-19 CNS, in the assay on HL-60(TB) leukemia and with SN12C renal was above 100 µM in each case.
Consider `COC(=O)C1=C(C(=O)OC)SC(=C2SC3=C(SC(=C4SCCS4)S3)S2)S1`, for which the TGI in the assay on SR leukemia, with HCT-116 colon, in the assay on A498 renal, in the assay with TK-10 renal, in the assay with 786-0 renal and with MDA-MB-435 was above 100 µM in each case. Besides, the TGI with SNB-19 CNS, in the assay with HL-60(TB) leukemia and with SN12C renal was above 100 µM in each case.
On to `C[N+]1(CCN=C=NC2CCCCC2)CCOCC1`, for which the TGI in the assay on SR leukemia, with HCT-116 colon, in the assay with A498 renal, in the assay with TK-10 renal, with 786-0 renal and in the assay with MDA-MB-435 was above 100 µM each time. In addition, the TGI in the assay with SNB-19 CNS, in the assay on HL-60(TB) leukemia and in the assay on SN12C renal was above 100 µM each time.
Take `C#CCOCC12C=CC(O1)C1COC(=O)C12` (stereo not given): the TGI in the assay on SR leukemia, in the assay with HCT-116 colon, with A498 renal, in the assay on TK-10 renal, in the assay with 786-0 renal and with MDA-MB-435 was above 100 µM each time. For the same compound, the TGI with SNB-19 CNS, in the assay with HL-60(TB) leukemia and with SN12C renal was above 100 µM each time.
With `Cc1nc(SCC(N)=O)c2sc(=S)n(-c3ccccc3)c2n1`, the TGI with SR leukemia, with HCT-116 colon, in the assay with A498 renal, in the assay with TK-10 renal, in the assay with 786-0 renal and in the assay with MDA-MB-435 was above 10 µM in each case. Further, the TGI in the assay with SNB-19 CNS, with HL-60(TB) leukemia and in the assay with SN12C renal was above 10 µM throughout.
`O=C1CS/C(=N/N=C/c2cn(Cc3ccc(Cl)cc3Cl)c3ccccc23)N1`: the TGI in the assay with SR leukemia was above 100 µM; in the assay with HCT-116 colon, above 100 µM; in the assay with A498 renal it was 46.5 µM; with TK-10 renal, above 100 µM; in the assay on 786-0 renal, 53.2 µM; with MDA-MB-435, above 100 µM. The TGI with SNB-19 CNS is above 100 µM; in the assay on HL-60(TB) leukemia it was above 100 µM; in the assay on SN12C renal it was 70.9 µM.
In the case of `CNC(=S)NNc1ncnc2c1c(-c1ccc(Cl)cc1)cn2-c1ccc(C)cc1`, the TGI in the assay with SR leukemia is above 100 µM; with HCT-116 colon, 17.1 µM; in the assay on A498 renal, 49.6 µM; in the assay on TK-10 renal, 35 µM; in the assay on 786-0 renal it was 24.2 µM; in the assay with MDA-MB-435, 23.6 µM. In addition, the figures for the TGI with SNB-19 CNS, with HL-60(TB) leukemia and with SN12C renal were 36.6 µM, above 100 µM and 24.3 µM, respectively.
`NC(Cc1[nH]nc2ccccc12)C(=O)O` (stereo not given): the TGI in the assay with SR leukemia, in the assay with HCT-116 colon, in the assay with A498 renal, with TK-10 renal, with 786-0 renal and with MDA-MB-435 was above 100 µM throughout. The TGI with SNB-19 CNS, with HL-60(TB) leukemia and in the assay with SN12C renal was above 100 µM each time.
Take `CCOc1ccc(NCC2CC/C(=C\C=C\c3ccccc3)C2=O)cc1` (stereo not given): the TGI with SR leukemia is above 33.3 µM; in the assay on HCT-116 colon, 20.4 µM; in the assay on A498 renal it was above 100 µM; in the assay on TK-10 renal it was above 50.7 µM; with 786-0 renal, 13.5 µM; in the assay with MDA-MB-435, 30.4 µM. Also, the TGI in the assay on SNB-19 CNS is 60.9 µM; in the assay with HL-60(TB) leukemia it was 47.8 µM; with SN12C renal, 35.4 µM.
Consider `Clc1ccc(OCc2nnc(COc3ccc(OCc4nnc(COc5ccc(Cl)cc5Cl)o4)c(Cl)c3)o2)c(Cl)c1`, for which the TGI is 36.6 µM with SR leukemia; above 100 µM in the assay on HCT-116 colon; above 100 µM with A498 renal; above 100 µM in the assay on TK-10 renal; above 100 µM with 786-0 renal; above 100 µM in the assay with MDA-MB-435. The TGI with SNB-19 CNS was above 100 µM; in the assay on HL-60(TB) leukemia, 57.3 µM; in the assay with SN12C renal it was above 100 µM.
With `COc1cc2[nH]c(=O)c3cc(-c4ccccc4)cc4c(Cl)nc(c1OC)c2c43`, the TGI in the assay with SR leukemia was above 100 µM; with HCT-116 colon it was 12.9 µM; with A498 renal, above 100 µM; in the assay with TK-10 renal, above 70 µM; with 786-0 renal, above 49.2 µM; in the assay on MDA-MB-435 it was 8.84 µM. The TGI in the assay with SNB-19 CNS is above 82.8 µM; in the assay with HL-60(TB) leukemia it was 12.3 µM; with SN12C renal, above 100 µM.
For the compound `O=C(O)C1=NN(c2ccc(S(=O)(=O)O)cc2)C2(C1)C(Cl)C(=O)N2c1nc2ccccc2s1` (stereo not given), the TGI in the assay on SR leukemia turned out to be 24.5 µM; in the assay with HCT-116 colon, 33.1 µM; with A498 renal it was 36.7 µM; in the assay on TK-10 renal, 33.2 µM; in the assay on 786-0 renal, 32 µM; with MDA-MB-435, 32.6 µM. Also, the TGI with SNB-19 CNS was 64.8 µM; with HL-60(TB) leukemia, 34.4 µM; in the assay on SN12C renal it was 43.7 µM.
As for `O=CN1CCN(C(=O)c2ccco2)C1=S`, the TGI with SR leukemia was determined as 9.25 µM; in the assay with HCT-116 colon, 24.5 µM; with A498 renal it was 39.7 µM; with TK-10 renal it was 31 µM; in the assay with 786-0 renal, 12.6 µM; with MDA-MB-435, 19.7 µM. Also, the TGI is above 70.6 µM in the assay on SNB-19 CNS, 8.94 µM in the assay on HL-60(TB) leukemia and 15.8 µM with SN12C renal.
For the compound `C=C1CC(COc2ccc3c(C)c(C)c(=O)oc3c2C)(c2ccccc2)OC1=O` (stereo not given), the TGI in the assay with SR leukemia was above 100 µM; in the assay with HCT-116 colon, 2.77 µM; in the assay on A498 renal it was 12.5 µM; in the assay on TK-10 renal it was 3.03 µM; in the assay on 786-0 renal, 2.78 µM; in the assay with MDA-MB-435, 7.96 µM. Besides, the TGI is 27.1 µM in the assay on SNB-19 CNS, 5.54 µM with HL-60(TB) leukemia and 11.3 µM with SN12C renal.
For `O=C(Sc1c(-c2ccccc2)c(=O)n(-c2ccccc2)c(=S)n1-c1ccccc1)c1ccco1`, the TGI with SR leukemia was above 78.9 µM; in the assay on HCT-116 colon, above 100 µM; in the assay on A498 renal, above 100 µM; with TK-10 renal, above 100 µM; in the assay with 786-0 renal, above 100 µM; in the assay on MDA-MB-435, above 100 µM. In addition, the TGI was above 100 µM with SNB-19 CNS, 59.2 µM with HL-60(TB) leukemia and above 100 µM with SN12C renal.
